According to article PMC10445290, “Enantiomeric Fractions Reveal Differences in the Atropselective Disposition of 2,2′,3,5′,6-Pentachlorobiphenyl (PCB 95) in Wildtype, Cyp2abfgs-Null, and CYP2A6-Humanized Mice” (Chemical Research in Toxicology, 2023):

Tests used:
[1] = Atropisomeric analysis of PCB 95 (enantiomeric fraction, EF) in tissues by chiral GC-ECD; assay type: in vivo, mice; details: racemic PCB 95 1.0 mg/kg oral, 24 h, EF = AE1/(AE1 + AE2)
Method: Adult male and female wild-type (WT) C57BL/6 mice, KO, and KI mice (4 months old) were exposed to racemic PCB 95. Mice were randomly assigned to exposure groups and received a single oral dose of PCB 95 (1.0 mg/kg) in stripped corn oil (10 mL/kg; lot# A0395699; cat# 801-03-7; Fisher Scientific) via gavage (5–7 mice per group). Control animals received corn oil alone (1–3 mice per group) to assess the potential background contamination with PCB 95. Animals were euthanized 24 h after PCB 95 exposure. Blood was collected from the heart and placed in pre-weighed glass vials with 80 μL of ethylenediaminetetraacetic acid solution (EDTA, 7.5%, w/w). The amount of blood in each vial was determined by weight prior to sample extraction. Adipose, brain, and liver tissues were excised from each animal and individually wrapped in aluminum foil. Samples were stored at −80 °C in separate plastic bags and shipped on dry ice to the University of Iowa for analysis.
Atropisomeric analyses of PCB 95 were performed with all samples using an Agilent 7890A gas chromatograph with a ^63Ni-μECD detector and a Chiralsil-Dex CB (25 m length, 250 μm inner diameter, 0.25 μm film thickness; Agilent, Santa Clara, CA, USA) following a published method with modifications.[48] The following temperature program was used for the atropisomeric analysis: 50 °C, hold for 1 min, 10 °C/min to 150 °C, hold for 65 min, 15 °C/min to 200 °C, and hold for 15 min. The injector and detector temperature was 250 °C, and the helium flow was 3.0 mL/min. The EF values of PCB 95 were calculated as EF = AE1/(AE1 + AE2) where AE1 and AE2 are the peak area of the first (E1) and the second eluting (E2) atropisomers, respectively. E1- and E2-PCB 95 correspond to aR- and aS-PCB 95, respectively.[16],[25]
Method blanks, blank tissue samples, and an ongoing precision and recovery standard were extracted in parallel with each sample batch. The method detection limits (MDLs) were determined based on method blanks (Table S3). Limits of quantification (LOQ) in different matrices were established based on the corresponding tissue blanks (Table S3). Surrogate standards, PCB 117 and 4′-159, were added to all samples to assess the precision and reproducibility of the analytical methods (Table S4). In addition, an ongoing precision and surrogate standard was in parallel extracted from both method and tissue blanks with each sample batch (Table S5). The resolution of atropisomers of PCB 95 on the Chiralsil Dex CB column was 1.27, calculated with the formula Rs = [tE2 – tE1)/(0.5 × (WE1 + WE2)], where tE1 and tE2 are the retention times of peaks 1 and 2, and WE1 and WE2 indicate the width of the peak E1 and E2. The EF value of the racemic standard of PCB 95 was 0.498 ± 0.004 (n = 7).
Levels of PCB 95 and its metabolites, expressed as ng per gram wet weight (ng/g), and EF values are reported as mean ± standard deviation (Tables S6 and S7). The statistical analyses were performed with two-way ANOVA with the Bonferroni model in GraphPad Prism 9.4.1 (Tables S8 and S9). In addition, OH-PCB metabolite profiles were compared using the similarity coefficient, cos θ (Tables S10 and S11).[49] The cos θ ranges from 0 to 1, where a value of 0 indicates completely different profiles and a value of 1 indicates identical profiles. The original data underlying this study are openly available through the Iowa Research Online repository at https://doi.org/10.25820/data.006613.

[2] = set-up: method as in PMID 26463278; details: male Wistar rats, sub-acute oral exposure; cited from earlier work
[3] = cited from earlier work
[4] = FKI, female CYP2A6-humanized mice
[5] = FKO, female Cyp2abfgs-null mice
[6] = MKI, male CYP2A6-humanized mice
[7] = collected in 2001 from Japanese women

Compound: Clc1ccc(Cl)c(-c2c(Cl)ccc(Cl)c2Cl)c1 [PCB 95, 2,2′,3,5′,6-pentachlorobiphenyl]
- Enantiomeric fraction (EF) in adipose [1, 4]: 0.35 ± 0.02
- Enantiomeric fraction (EF) in blood [1, 4]: 0.28 ± 0.07
- Enantiomeric fraction (EF) in brain [1, 4]: 0.29 ± 0.01
- Enantiomeric fraction (EF) in liver [1, 4]: 0.24 ± 0.03
- Enantiomeric fraction (EF) in adipose [1, 5]: 0.41 ± 0.05
- Enantiomeric fraction (EF) in blood [1, 5]: 0.37 ± 0.07
- Enantiomeric fraction (EF) in brain [1, 5]: 0.39 ± 0.05
- Enantiomeric fraction (EF) in liver [1, 5]: 0.32 ± 0.06
- Enantiomeric fraction (EF) in adipose ([1]; FWT, female wildtype mice): 0.33 ± 0.02
- Enantiomeric fraction (EF) in blood ([1]; FWT, female wildtype mice): 0.32 ± 0.07
- Enantiomeric fraction (EF) in brain ([1]; FWT, female wildtype mice): 0.25 ± 0.03
- Enantiomeric fraction (EF) in liver ([1]; FWT, female wildtype mice): 0.20 ± 0.03
- Enantiomeric fraction (EF) in adipose [1, 6]: 0.36 ± 0.02
- Enantiomeric fraction (EF) in blood [1, 6]: 0.31 ± 0.03
- Enantiomeric fraction (EF) in brain [1, 6]: 0.32 ± 0.02
- Enantiomeric fraction (EF) in liver [1, 6]: 0.27 ± 0.03
- Enantiomeric fraction (EF) in adipose ([1]; MKO, male Cyp2abfgs-null mice): 0.38 ± 0.03
- Enantiomeric fraction (EF) in blood ([1]; MKO, male Cyp2abfgs-null mice): 0.35 ± 0.04
- Enantiomeric fraction (EF) in brain ([1]; MKO, male Cyp2abfgs-null mice): 0.34 ± 0.03
- Enantiomeric fraction (EF) in liver ([1]; MKO, male Cyp2abfgs-null mice): 0.28 ± 0.04
- Enantiomeric fraction (EF) in adipose ([1]; MWT, male wildtype mice): 0.37 ± 0.01
- Enantiomeric fraction (EF) in blood ([1]; MWT, male wildtype mice): 0.28 ± 0.02
- Enantiomeric fraction (EF) in brain ([1]; MWT, male wildtype mice): 0.31 ± 0.02
- Enantiomeric fraction (EF) in liver ([1]; MWT, male wildtype mice): 0.26 ± 0.02
- PCB 95 levels in adipose tissue [2]: 9300 ng/g
- PCB 95 levels in blood [2]: 9 ng/g
- PCB 95 levels in the cerebellum [2]: 51 ng/g
- PCB 95 levels in the cortex [2]: 29 ng/g
- PCB 95 levels in the liver [2]: 120 ng/g
- PCB 95 concentration in maternal serum ([3]; MARBLES cohort, detected in only one sample): 0.1 ng/g wet weight
- PCB 95 in human adipose tissue ([3]; collected 2008 to 2009 during abdominal operations, Southeast China): below the limit of detection
- PCB 95 in breast adipose tissue [3, 7]: below the detection limit
- PCB 95 in serum [3, 7]: below the detection limit
- Average PCB 95 levels in postmortem brain tissues ([3]; older donors aged 58 to 80, United States): 0.13 ng/g
- PCB 95 in human liver samples ([3]; small human cohort from Belgium (N = 11)): below the limit of detection
- PCB 95 in postmortem brain tissues ([3]; younger donors aged 0 days to 1 year): not detected
